Data published in publication PMC8000227 (Viruses, 2021).
Values joined by “and” are separate entries in the source; they are usually repeats but may differ in a detail not shown here. Equal values may be shown once.

What was measured:
[1] = cited from earlier work
[2] = cited from earlier work; remark: listed apart in the source
HIV-1NL4-3 = test: microbe, parasite or virus in culture; type: cell-based; settings: TZM-GFP cells, HIV-1NL4-3 MOI 0.1, 48 h, mean ± SD; for EC50: Human immunodeficiency virus 1, read-out: EC50 (concentration of compound inhibiting HIV-1 replication by 50%)
[3] = biological target: covalently-crosslinked hexameric CA A14C/E45C/W184A/M185A (CA121) (Human immunodeficiency virus type 1 group M subtype B, UniProt P12493, A146C/E177C/M317A/W316A); test: Thermal shift assay (TSA) on CA hexamer stability; type: binding, HIV-1; settings: 20 µM compound, 7.5 µM CA121
[4] = Cytotoxicity assay (XTT) in TZM-GFP cells; type: cell-based; settings: human, mean ± SD, read-out: CC50 (concentration of compound causing 50% cell death)
[5] = Microsomal stability, mouse liver microsomes; type: in vitro ADME; settings: pH 7.4, 1 µM compound, 0.5 mg/mL microsomal protein, NADPH, 37 °C, read-out: Phase I metabolic stability t1/2, MLMs
[6] = Microsomal stability, human liver microsomes; type: in vitro ADME; settings: 0.5 mg/mL microsomal protein, NADPH, 37 °C; for half-life at 1 µM: human, liver microsomes, pH 7.4, 1 µM compound, read-out: Phase I metabolic stability t1/2, HLMs
[7] = Metabolites observed in the microsomal stability assay; type: in vitro ADME; settings: observed in liver microsomal stability assay

Row | Structure (SMILES) | half-life (t1/2) in mouse liver microsomes (MLMs) [1] | half-life (t1/2) in human liver microsomes (HLMs) [2] | EC50 (HIV-1NL4-3) | TSA ΔTm (change of CA crosslinked hexamer melting temperature vs DMSO) [3] | CC50 at 72 h [4] | half-life at 1 µM [5] | half-life at 1 µM [6] | Metabolite (s) [7] | EC50 (concentration of compound inhibiting HIV-1 replication by 50%) (HIV-1NL4-3) | Phase I metabolic stability t1/2, HLMs ([6]; 1 µM compound)
1 | Cc1[nH]c2ccccc2c1CC(=O)N[C@@H](Cc1ccccc1)C(=O)N(C)c1ccccc1 [PF74, reference compound] | less than 1 min | less than 1 min | 0.7 ± 0.07 µM | 6.9 °C and 6.9 ± 0.5 °C | – | – | – | – | – | –
2 | COc1ccc2[nH]cc(CC(=O)N[C@@H](Cc3ccccc3)c3nccn3-c3ccc(Br)cc3)c2c1 [Compound 24] | – | – | 3.5 ± 0.3 µM | 2.8 ± 0.3 °C | > 100 µM | – | – | – | – | –
3 | Cc1[nH]c2ccccc2c1CC(=O)N[C@@H](Cc1ccccc1)c1nccn1-c1ccccc1 [Compound 20] | – | – | 3.7 ± 0.8 µM | 3.9 °C and 3.9 ± 0.4 °C | > 50 µM | 0.7 ± 0.01 min | 0.9 ± 0.004 min | – | – | –
4 | COc1ccc2[nH]cc(CC(=O)N[C@@H](Cc3ccccc3)c3ncccc3-c3ccc(Cl)cc3)c2c1 [Compound 14] | – | – | 1.4 ± 0.7 µM | 7.8 ± 0.3 °C | 39 ± 0.2 µM | 0.9 ± 0.004 min | 1.7 ± 0.02 min | 15 | – | –
5 | O=C(Cc1c[nH]c2ccccc12)N[C@@H](Cc1ccccc1)c1ncccc1-c1ccc(Cl)cc1 [Compound 13] | – | – | 0.79 ± 0.25 µM | 7.7 ± 0.2 °C | 22 ± 2 µM | – | – | – | – | –
6 | Cc1[nH]c2ccccc2c1CC(=O)N[C@@H](Cc1ccccc1)C(=O)N1CCc2ccccc21 [Compound 1] | – | – | > 20 µM | −0.5 °C | > 100 µM | – | – | – | – | –
7 | CCn1cc(CC(=O)N[C@@H](Cc2ccccc2)c2ncccc2-c2ccc(Cl)cc2)c2ccccc21 [Compound 16] | – | – | 2.7 ± 0.2 µM | 6.6 ± 0.2 °C | 41 ± 0.1 µM | 1.4 ± 0.02 min | 1.4 ± 0.02 min | 15 | – | –
8 | Cc1[nH]c2ccccc2c1CC(=O)N[C@@H](Cc1ccccc1)c1ncccc1-c1ccccc1 [Compound 9] | – | – | 2.6 ± 0.4 µM | 4.5 °C and 4.5 ± 0.0 °C | < 50 µM | 1 ± 0.01 min | 1.2 ± 0.04 min | – | – | –
9 | Cc1[nH]c2ccccc2c1CC(=O)N[C@H](Cc1ccccc1)c1ncccc1-c1ccccc1 [Compound 4] | – | – | > 20 µM | – | < 50 µM | – | – | – | completely inactive | –
10 | O=C(Cc1c[nH]c2ccc(O)cc12)N[C@@H](Cc1ccccc1)c1ncccc1-c1ccc(Cl)cc1 [Compound 15] | – | – | 0.31 ± 0.07 µM | 8.7 °C and 8.7 ± 0.3 °C | 44 ± 1 µM | 3.1 ± 0.3 min | 27 min | – | – | 27.2 ± 0.5 min
11 | O=C(Cc1c[nH]c2ccccc12)N[C@@H](Cc1ccccc1)C(=O)N1CCc2ccccc21 [Compound 2] | – | – | > 20 µM | −1.0 °C | > 100 µM | – | – | – | – | –
12 | CCn1cc(CC(=O)N[C@@H](Cc2ccccc2)c2ncccc2-c2ccc(Cl)cc2)c2cc(OC)ccc21 [Compound 17] | – | – | 3.6 ± 0.2 µM | 5.9 ± 0.2 °C | 48 ± 6 µM | 1.3 ± 0.005 min | 1.3 ± 0.01 min | 15 and 14 | – | –
13 | O=C(Cc1c[nH]c2ccccc12)N[C@@H](Cc1ccccc1)C(=O)N1CCCc2ccccc21 [Compound 3] | – | – | > 20 µM | 1.8 ± 1.2 °C | > 50 µM | – | – | – | – | –
14 | O=C(Cn1cccn1)N[C@@H](Cc1ccccc1)c1ncccc1-c1ccccc1 [Compound 11, (S)-N-(2-phenyl-1-(3-phenylpyridin-2-yl)ethyl)-2-(1H-pyrazol-1-yl)acetamide] | – | – | 5.1 ± 0.7 µM | – | > 50 µM | – | – | – | low micromolar | –
15 | CCn1cc(CC(=O)N[C@@H](Cc2ccccc2)c2ncccc2-c2ccc(Br)cc2)c2ccccc21 [Compound 19] | – | – | 3.2 ± 0.3 µM | 6.3 ± 0.1 °C | 41 ± 2 µM | – | – | – | – | –
16 | O=C(Cn1cccn1)N[C@H](Cc1ccccc1)c1ncccc1-c1ccccc1 [Compound 6] | – | – | > 15 µM | 0.3 ± 0.1 °C | > 50 µM | – | – | – | – | –
17 | O=C(Cn1ncc2ccccc21)N[C@H](Cc1ccccc1)c1ncccc1-c1cccc2cn[nH]c12 [Compound 7] | – | – | > 20 µM | 0 ± 0 °C | > 50 µM | – | – | – | – | –
18 | COc1ccc2[nH]cc(CC(=O)N[C@@H](Cc3ccccc3)c3ncccc3-c3ccc(Br)cc3)c2c1 [Compound 18] | – | – | 2.1 ± 0.8 µM | 6.3 ± 0.6 °C | 40 ± 4 µM | – | – | – | – | –
19 | Cc1[nH]c2ccccc2c1CC(=O)N[C@@H](Cc1ccccc1)c1nccn1-c1ccc(C#N)cc1 [Compound 21] | – | – | 6.6 ± 0.4 µM | 2.2 ± 0.0 °C | > 50 µM | – | – | – | – | –
20 | O=C(Cn1cccn1)N[C@H](Cc1ccccc1)c1ncccc1-c1cccc2cn[nH]c12 [Compound 8] | – | – | > 20 µM | 0.1 ± 0.1 °C | > 50 µM | – | – | – | – | –
21 | COc1ccc2[nH]cc(CC(=O)N[C@@H](Cc3ccccc3)c3nccn3-c3ccc(I)cc3)c2c1 [Compound 25] | – | – | 3.3 ± 0.2 µM | 2.7 ± 0.1 °C | > 100 µM | – | – | – | – | –
22 | Cc1[nH]c2ccccc2c1CC(=O)N[C@@H](Cc1ccccc1)c1nccn1-c1ccc(-c2nnn[nH]2)cc1 [Compound 22] | – | – | > 20 µM | −0.3 ± 0.1 °C | > 50 µM | 0.9 ± 0.01 min | 1.3 ± 0.01 min | – | no antiviral activity | –
23 | COc1ccc2[nH]cc(CC(=O)N[C@@H](Cc3ccccc3)c3nccn3-c3ccc(Cl)cc3)c2c1 [Compound 23] | – | – | 3.3 ± 0.03 µM | 4.0 ± 0.3 °C | 93 ± 2 µM | – | – | – | – | –
24 | O=C(Cn1ncc2ccccc21)N[C@@H](Cc1ccccc1)c1ncccc1-c1ccccc1 [Compound 10, (S)-2-(1H-indazol-1-yl)-N-(2-phenyl-1-(3-phenylpyridin-2-yl)ethyl)acetamide] | – | – | 8.8 ± 0.4 µM | – | < 50 µM | – | – | – | low micromolar | –
25 | Cc1[nH]c2ccccc2c1CC(=O)N[C@@H](Cc1ccccc1)c1ncccc1-c1cccc(C#N)c1 [Compound 12] | – | – | > 20 µM | −0.2 ± 0.07 °C | > 50 µM | – | – | – | – | –
26 | O=C(Cn1ncc2ccccc21)N[C@H](Cc1ccccc1)c1ncccc1-c1ccccc1 [Compound 5] | – | – | > 20 µM | 0.1 ± 0.07 °C | < 50 µM | – | – | – | – | –
